Measurements: PMC7529893, “Structural basis for substrate recognition and chemical inhibition of oncogenic MAGE ubiquitin ligases” (Nature Communications, 2020)

target: T1, MAGE-A11:PCF11 interaction (GST-MAGE-A11 and FAM-PCF11_4) (Homo sapiens, UniProt P43364); assay: TR-FRET primary / single point screen at 15 µM; assay type: binding; conditions: single point TR-FRET screening of 797 quinoline compounds against MAGE-A11:PCF11
T1 construct: GST-MAGE-A11 MHD (human MAGE-A11 MHD amino acid 218-429); made in house; host or cells: E. coli BL21(DE3)
T1 sequence (P43364 218-429): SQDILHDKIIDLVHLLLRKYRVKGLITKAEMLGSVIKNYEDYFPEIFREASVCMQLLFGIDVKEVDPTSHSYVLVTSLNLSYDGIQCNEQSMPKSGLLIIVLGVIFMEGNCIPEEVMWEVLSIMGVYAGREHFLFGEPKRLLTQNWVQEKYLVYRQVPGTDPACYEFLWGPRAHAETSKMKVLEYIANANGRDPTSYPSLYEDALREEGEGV
In short: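 TR-FRET 520/490 nm emission ratio was read after 90 min at room temperature. Wells held 5 nM GST-MAGE-A11, 5 nM Tb-anti-GST, 200 nM FAM-PCF11_4 and 15 µM compound in Tris pH 7.5 buffer with MgCl2, BSA and DTT. %Inhibition was scaled to DMSO and minus-MAGE-A11 controls.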

Point of comparison: CCCN(CCCNc1c2ccc(Cl)cc2nc2ccc(OC)cc12)Cc1ccccc1F [SJ000520944], “percent inhibition (TR-FRET)” value -118.554. Against it:
- CCCN(CCCNc1c2ccc(Cl)cc2nc2ccc(OC)cc12)Cc1ccco1 [SJ000520935] — lower, -202.643
- CCCN(CCCNc1c2ccc(Cl)cc2nc2ccc(OC)cc12)CC1CC1 [SJ000520936] — lower, -271.356
- CCCN(CCCNc1c2ccc(Cl)cc2nc2ccc(OC)cc12)Cc1ccoc1 [SJ000520937] — lower, -394.576
- CCCN(CCCNc1c2ccc(Cl)cc2nc2ccc(OC)cc12)CC1CCCCC1 [SJ000520938] — lower, -163.904
- CCCN(CCCNc1c2ccc(Cl)cc2nc2ccc(OC)cc12)CC(CC)CC [SJ000520939] — lower, -160.284
- CCCN(CCCNc1c2ccc(Cl)cc2nc2ccc(OC)cc12)Cc1ccc2c(c1)OCO2 [SJ000520940] — lower, -193.541
- CCCCCN(CCC)CCCNc1c2ccc(Cl)cc2nc2ccc(OC)cc12 [SJ000520941] — lower, -210.345
- CCCN(CCCNc1c2ccc(Cl)cc2nc2ccc(OC)cc12)Cc1ccc(OC)cc1 [SJ000520943] — lower, -241.432
- CCCN(CCCNc1c2ccc(Cl)cc2nc2ccc(OC)cc12)Cc1ccc(F)cc1 [SJ000520946] — lower, -141.659
- CCCN(CCCNc1c2ccc(Cl)cc2nc2ccc(OC)cc12)Cc1ccccc1[N+](=O)[O-] [SJ000520947] — lower, -228.339
- CCCN(CCCNc1c2ccc(Cl)cc2nc2ccc(OC)cc12)Cc1ccccc1OC [SJ000520950] — lower, -271.121
- CCCN(CCCNc1c2ccc(Cl)cc2nc2ccc(OC)cc12)Cc1ccccc1C(=O)O [SJ000520951] — lower, -258.592
- CCCN(CCCNc1c2ccc(Cl)cc2nc2ccc(OC)cc12)Cc1ccc2ccccc2c1 [SJ000520953] — lower, -129.124
- CCCN(CCCNc1c2ccc(Cl)cc2nc2ccc(OC)cc12)Cc1cccc(C)c1 [SJ000520954] — lower, -157.809
- CCCN(CCCNc1c2ccc(Cl)cc2nc2ccc(OC)cc12)Cc1ccc(OC)c(OC)c1 [SJ000520957] — lower, -175.453
- CCCN(CCCNc1c2ccc(Cl)cc2nc2ccc(OC)cc12)CCCc1ccccc1 [SJ000520958] — lower, -267.24
- CCCN(CCCNc1c2ccc(Cl)cc2nc2ccc(OC)cc12)CC(C)CC (stereo not drawn) [SJ000520959] — lower, -264.817
- CCCN(CCCNc1c2ccc(Cl)cc2nc2ccc(OC)cc12)Cc1cc(C)ccc1C [SJ000520960] — lower, -119.324
- CCCN(CCCNc1c2ccc(Cl)cc2nc2ccc(OC)cc12)Cc1cccc(OC)c1 [SJ000520961] — lower, -244.583
- CCCN(CCCNc1c2ccc(Cl)cc2nc2ccc(OC)cc12)CCc1ccccc1 [SJ000520962] — lower, -591.727
- CCCCCCN(CCC)CCCNc1c2ccc(Cl)cc2nc2ccc(OC)cc12 [SJ000520963] — lower, -153.702
- COc1ccc2nc3cc(Cl)ccc3c(NCCCNCc3cccn3C)c2c1 [SJ000520985] — lower, -402.468
- COc1ccc2nc3cc(Cl)ccc3c(NCCCNCc3cccnc3)c2c1 [SJ000520986] — lower, -408.98
- COc1ccc2nc3cc(Cl)ccc3c(NCCCNCc3cn(C)c4ccccc34)c2c1 [SJ000520987] — lower, -252.354
- COc1ccc2nc3cc(Cl)ccc3c(NCCCNCc3nccs3)c2c1 [SJ000520989] — lower, -355.207
- COc1ccc2nc3cc(Cl)ccc3c(NCCCNCc3cccc(C(F)(F)F)c3)c2c1 [SJ000520990] — lower, -408.139
- COc1ccc2nc3cc(Cl)ccc3c(NCCCNCc3cccc4c3OCO4)c2c1 [SJ000520991] — lower, -257.115
- COc1ccc2nc3cc(Cl)ccc3c(NCCCNCc3ccc(OC(F)(F)F)cc3)c2c1 [SJ000520992] — lower, -200.963
- COc1ccc2nc3cc(Cl)ccc3c(NCCCNCc3cc(F)ccc3OC)c2c1 [SJ000520993] — lower, -365.36
- COc1ccc2nc3cc(Cl)ccc3c(NCCCNCCC(C)(C)C)c2c1 [SJ000520994] — lower, -456.31
- CCCCNCCCNc1c2ccc(Cl)cc2nc2ccc(OC)cc12 [SJ000520995] — lower, -405.549
- COc1ccc2nc3cc(Cl)ccc3c(NCCCNCc3cc(Br)cs3)c2c1 [SJ000520996] — lower, -287.642
- COc1ccc2nc3cc(Cl)ccc3c(NCCCNCc3cc4ccccc4o3)c2c1 [SJ000520997] — lower, -146.701
- COc1ccc(F)c(CNCCCNc2c3ccc(Cl)cc3nc3ccc(OC)cc23)c1 [SJ000520998] — lower, -354.997
- COc1ccc2nc3cc(Cl)ccc3c(NCCCNCc3c(F)cccc3C(F)(F)F)c2c1 [SJ000520999] — higher, -116.734
- COc1ccc2nc3cc(Cl)ccc3c(NCCCNCc3cc4ccccc4s3)c2c1 [SJ000521000] — lower, -220.357
- COc1ccc2nc3cc(Cl)ccc3c(NCCCNCc3cc(OC(F)(F)F)ccc3OC)c2c1 [SJ000521001] — lower, -231.84
- COc1ccc2nc3cc(Cl)ccc3c(NCCCNCc3cc(C(F)(F)F)ccc3OC)c2c1 [SJ000521002] — lower, -290.163
- COc1ccc2nc3cc(Cl)ccc3c(NCCCNCC3CCOC3)c2c1 (stereo not drawn) [SJ000521003] — lower, -442.307
- COc1ccc2nc3cc(Cl)ccc3c(NCCCNCc3cccc(F)c3)c2c1 [SJ000521004] — lower, -366.222
- CCc1ccc(CNCCCNc2c3ccc(Cl)cc3nc3ccc(OC)cc23)cc1 [SJ000521005] — lower, -390.355
- COc1ccc2nc3cc(Cl)ccc3c(NCCCNCc3nccn3C)c2c1 [SJ000521006] — lower, -279.905

same assay, conditions: single point TR-FRET screening of quinoline compounds against MAGE-A11:PCF11; 15 µM

Point of comparison: CCCN(CCCNc1c2ccc(Cl)cc2nc2ccc(OC)cc12)Cc1cccc([N+](=O)[O-])c1 [SJ000520948], “percent inhibition (TR-FRET)” value -10.7413. Against it:
- CCCN(CCCNc1c2ccc(Cl)cc2nc2ccc(OC)cc12)Cc1c(C)cc(C)cc1C [SJ000520934] — lower, -46.315
- CCCN(CCCNc1c2ccc(Cl)cc2nc2ccc(OC)cc12)Cc1ccc(F)c(F)c1 [SJ000520942] — higher, 0.9703
- CCCN(CCCNc1c2ccc(Cl)cc2nc2ccc(OC)cc12)Cc1cccc(F)c1 [SJ000520945] — lower, -90.1278
- CCCN(CCCNc1c2ccc(Cl)cc2nc2ccc(OC)cc12)Cc1ccc([N+](=O)[O-])cc1 [SJ000520949] — higher, -9.039
- CCCN(CCCNc1c2ccc(Cl)cc2nc2ccc(OC)cc12)Cc1cccc2ccccc12 [SJ000520952] — lower, -40.7667
- CCCN(CCCNc1c2ccc(Cl)cc2nc2ccc(OC)cc12)Cc1ccc(N(C)C)cc1 [SJ000520955] — higher, -10.0604
- CCCN(CCCNc1c2ccc(Cl)cc2nc2ccc(OC)cc12)Cc1ccc(Cl)cc1Cl [SJ000520956] — higher, 9.598
- COc1ccc2nc3cc(Cl)ccc3c(NCCCNCc3cccc(OC(F)(F)F)c3)c2c1 [SJ000520988] — lower, -73.5426
- CCCN(CCCNc1ccnc2cc(C(F)(F)F)ccc12)Cc1cncc(Br)c1 [SJ000521007] — higher, 4.323
- CCCN(CCCNc1ccnc2cc(C(F)(F)F)ccc12)Cc1cccc(F)c1 [SJ000521008] — higher, 27.8488
